# Experimental data taken from PMC11996864, “A small-molecule inhibitor of BCL10-MALT1 interaction abrogates progression of diffuse large B cell lymphoma” (The Journal of Clinical Investigation, 2025).
# “And” between values parts separate entries of the source, which are not always exact repeats. Equal values may be shown once. Read-outs that look alike come from different tables or passages of the source.
# Columns and labels:
# [1] = test system: IL-2 secretion from Jurkat T cells; test: Secreted IL-2 ELISA after PMA/Iono; format: cell-based, human; conditions: PMA/Iono treated, Suppl Fig. 4A
# [2] = test system: IL-2 secretion from primary mouse splenocytes; test: Secreted IL-2 ELISA, stimulated primary splenocytes; format: cell-based; conditions: Suppl Fig. 4B; for IL-2 protein level (% of control) / activity at 5 µM: 5 uM; for activity at 1 µM / activity at 5 µM: Mus musculus, Splenocyte, read-out: IL-2 protein level (% of control)
# [3] = test system: IKKα/β phosphorylation in Jurkat T cells; test: IKKα/β phosphorylation after CD3/CD28 stimulation (MALT1 scaffolding activity); format: cell-based, human; conditions: for pIKK (normalized): Jurkat, 1 μM; for IKK phosphorylation: result in words
# Experimental: (§1) Western blot analysis of RelB and N4BP1 cleavage was used to test the effect of small molecules on MALT1 protease activity. To this end, 3 million Jurkat T cells were pretreated with compounds for 24 hours in serum-free media, and then 5 μM MG-132 was added for 1 hour before stimulation with CD3/CD28 (Stemcell Technologies, catalog 10971), and lysed in RIPA buffer (Millipore, catalog 20-188) with protease and phosphatase inhibitor cocktail (Pierce, catalog 78446). IKKα/β phosphorylation and IκBα phosphorylation were used as measures of MALT1 scaffolding activity, while ERK1/2 phosphorylation was used as a control. Two million Jurkat T cells were treated with 1 μM M1i-124, 1 μM M1i-124d1, or DMSO in serum-free media for 16 hours, stimulated with CD3/CD28 for 0, 5, 10, or 20 minutes, and then immediately lysed in RIPA buffer with protease and phosphatase inhibitors. For experiments evaluating RelB cleavage and phosphorylation of IκBα in TMD8 cells, cells were treated with compounds for 24 hours in media containing 5% FBS. For RelB Western blot analysis, 5 μM MG-132 (Cell Signaling Technology, catalog 2194s) was added 4 hours before lysis in RIPA lysis buffer with protease/phosphatase inhibitors.
# OCI-Ly1 cells [4] = test: Apoptosis, annexin V/SYTOX Blue flow cytometry; format: cell-based, human
# Experimental: (§2) Cell proliferation, viability, and apoptosis assays. […]
# Annexin V Alexa 488
# (ThermoFisher Scientific, Cat# A13201) and SYTOX Blue Dead Cell (ThermoFisher Scientific, Cat# S34857) stains were used to detect apoptosis in DLBCL cells after treatment with 1 µM compounds for 8 days in TMD8 and OCI-Ly1 and for 5 days in OCI-Ly3 cells, then analyzed with flow cytometry. The percentages of cells in early and late apoptosis were combined for quantification. For CellTrace Violet, CellTiter-glo, and Annexin V apoptosis assays, cell were cultured in media with 50% of the usual serum. […]
# [5] = test system: IκB phosphorylation in TMD8 cells; test: Constitutive IκB phosphorylation, Western blot; format: cell-based, human; conditions: for IκB phosphorylation in TMD8 cells: result in words
# Experimental: as §1
# OCI-Ly1 cells [6] = test: CellTrace Violet dilution/cell division assay; format: cell-based, human; conditions: OCI-Ly1, 1 μM
# Experimental: as §2
# (§3) CellTrace Violet reagent (ThermoFisher, Cat#
# (§4) C34571) was used as a cell division tracking dye for OCI-Ly1, OCI-Ly3, and TMD8 cells treated with 1 μM of compound M1i-124 or DMSO control, where the intensity of the staining decreases with each round of cell division. At days 0 and 6 after staining of DMSO- and compound-treated cells, CellTrace Violet fluorescence was measured on a BD LSR II instrument and Mean Fluorescent Intensity (MFI) was analyzed by FlowJo (version 10.8.0, BD). […]
# (§5) For CellTrace Violet, CellTiter-glo, and Annexin V apoptosis assays, cell were cultured in media with 50% of the usual serum. […]
# TMD8 cells = test: CellTrace Violet dilution/cell division assay; format: cell-based, human; conditions: TMD8, 1 μM
# Experimental: as §2, §3, §4, §5
# OCI-Ly3 cells = test: CellTrace Violet dilution/cell division assay; format: cell-based, human; conditions: OCI-Ly3, 1 μM
# Experimental: as §2, §3, §4, §5
# [7] = test system: RelB cleavage in TMD8 cells; test: Constitutive RelB cleavage, Western blot; format: cell-based, human; conditions: result in words
# Experimental: as §1
# TMD8 tumor xenografts = test: NF-κB target gene mRNA in TMD8 tumor xenografts, qRT-PCR; format: in vivo, mouse
# Experimental: Total RNA extraction from the TMD8 tumor xenografts was performed using 80% TRIzol Reagent (Fisher Scientific, Cat# 15596026) and 20% Chloroform for tissue solubilization. After centrifugation, the supernatant was mixed with equal volume of 70% ETOH followed by RNA isolation using the RNeasy Plus Mini
# Kit. RNA was transcribed into cDNA using High-Capacity cDNA Reverse Transcription Kit (Applied Biosystems, Cat# 4368814) according to manufacturer’s instructions. RT-PCR was performed using TaqMan Universal PCR Master Mix (Applied Biosystems, Cat# 4304437) and run on a StepOnePlus Real-Time PCR machine (Applied Biosystems). The following probes from ThermoFisher Scientific were used for qRT-PCR: IL2 TaqMan probe Hs00174114, IL6 TaqMan
# OCI-Ly7 cells = test: Apoptosis, annexin staining flow cytometry; format: cell-based, human
# [8] = 24-hour time point, result in words
compound,measurement,setting,value
"CN1CCCC(CN2c3ccccc3Sc3ccccc32)C1 (stereo not drawn) [Mepazine, mepazine, reference compound]",activity at 5 µM,"[1]; Homo sapiens, Jurkat, read-out: IL-2 protein level (% of control)",29.9%
same,IL-2 protein level (% of control),[1]; 5 uM,22.8269 % of control and 31.0927 % of control
same,IL-2 protein level (% of control),[2]; CD3/CD28 treated,22.2086 % of control and 29.3738 % of control
same,activity at 1 µM,[2]; CD3/CD28 treated,82.7%
same,activity at 5 µM,[2]; CD3/CD28 treated,15.6%
same,activity at 1 µM,[2]; PMA/Iono treated,83.3%
same,activity at 5 µM,[2]; PMA/Iono treated,22.3%
same,IL-2 protein level (% of control),[2]; PMA/Iono treated,17.095 % of control and 28.7342 % of control
O=S(=O)(NCc1ccc2c(c1)OCO2)c1ccc(Cc2ccc(S(=O)(=O)NCc3ccc4c(c3)OCO4)cc2)cc1 [M1i-124],pIKK (normalized),[3]; CD3/CD28 0 min,0.4315 and 0.5112 and 0.3213 and 0.2741 and 0.4341
same,IKK phosphorylation,[3],reduced IKK phosphorylation
same,Annexin (% positivity),"OCI-Ly1 cells [4]; Ly1, individual replicates",14.6% and 13.45% and 17.85%
same,IκB phosphorylation in TMD8 cells,[5],marked reduction in IκB phosphorylation
same,activity at 1 µM,"OCI-Ly1 cells [6]; Homo sapiens, OCI-Ly1, 144 h, day 6, read-out: CellTrace Violet dilution (Percent of Control)",73.1%
same,cell division,"OCI-Ly1 cells [6]; 6 days, result in words",minimal effect
same,CellTrace Violet dilution (Percent of Control),"OCI-Ly1 cells [6]; day 6, 1 µM",82.43% of Control and 74.14% of Control and 90.83% of Control
same,activity at 1 µM,"TMD8 cells; Homo sapiens, TMD8, 144 h, day 6, read-out: CellTrace Violet dilution (Percent of Control)",42.2%
same,cell division,"TMD8 cells; 6 days, result in words",substantially reduced
same,CellTrace Violet dilution (Percent of Control),"TMD8 cells; day 6, 1 µM",48.11% of Control and 53.597% of Control and 42.644% of Control
same,cell division,"OCI-Ly3 cells; 6 days, result in words",substantially reduced
same,CellTrace Violet dilution (Percent of Control),"OCI-Ly3 cells; day 6, 1 µM",39.99% of Control and 46.66% of Control and 31.33% of Control and 60.69% of Control
same,RelB cleavage in TMD8 cells,[7],markedly reduced cleavage of RelB
same,IRF4 mRNA level in tumors,TMD8 tumor xenografts; [8],no effect
same,NFKBID mRNA level in tumors,TMD8 tumor xenografts; [8],no effect
same,NFKBIZ mRNA level in tumors,TMD8 tumor xenografts; [8],did reduce
same,TNFA mRNA level in tumors,TMD8 tumor xenografts; [8],did reduce
same,IL10 mRNA levels in tumors,"TMD8 tumor xenografts; 24 hours after last dose, result in words",not affected
same,IL6 mRNA level in tumors,"TMD8 tumor xenografts; 24 hours after last dose, vs DMSO, result in words",significant decrease
same,Gene expression by RT-PCR (normalized),TMD8 tumor xenografts; NFKBID,0.81 and 0.72 and 0.56 and 0.88 and 1.03 and 0.82 and 0.76 and 0.92
same,Annexin (% positivity),"OCI-Ly7 cells; Ly7, individual replicates",27% and 16.65% and 14.5%
same,apoptosis of OCI-Ly7 cells,OCI-Ly7 cells; result in words,either no or minimal apoptotic response
COc1ccc(CNS(=O)(=O)c2ccc(Cc3ccc(S(=O)(=O)NCc4ccc(OC)cc4)cc3)cc2)cc1 [M1i-124d1],pIKK (normalized),[3]; CD3/CD28 10 min,0.3485 and 0.3518 and 0.2777 and 0.3582 and 0.2291
same,IKK phosphorylation,[3],reduced IKK phosphorylation
same,Percent Apoptotic cells,OCI-Ly1 cells [4]; OCI-Ly1,9.94% and 10.39% and 9.5% and 11.36% and 12.09% and 11.72%
same,pIkB (normalized),"[5]; TMD8, 1 μM, 24 hours",0.264 and 0.345
same,IκB phosphorylation in TMD8 cells,[5],marked reduction in IκB phosphorylation
same,RelB cleavage in TMD8 cells,[7],markedly reduced cleavage of RelB
